According to patent US11518754B2, “Radiolabeled pharmaceuticals and methods of making and using same” (YALE UNIVERSITY, priority 2017, dated 2022):
Values joined by “and” are separate entries in the source; they are usually repeats but may differ in a detail not shown here. Equal values may be shown once.

How the values were obtained:
SV2A [1] = target: T1, SV2A (Homo sapiens (Human), UniProt Q7L0J3); test: PET imaging with (R)-11C-3 in patients with temporal lobe epilepsy
Method: PET imaging with (R)-^11C-3 was performed in healthy human subjects and patients with various disorders to determine if SV2A imaging can be used as an in vivo biomarker to detect changes in synaptic density in human diseases.
PET imaging with (R)-^11C-3 was carried out in ten healthy control subjects and nine patients of temporal lobe epilepsy (TLE) with mesial temporal sclerosis (MTS).

[2] = Plasma free fraction (fp) by ultrafiltration method; assay type: in vitro ADME, rhesus monkeys (Macaca mulatta); details: plasma (from arterial blood samples), rhesus monkey plasma
SV2A [3] = target: SV2A (Macaca mulatta, UniProt H9EQH8); test: PET imaging studies in rhesus monkeys; details: for Binding potential (BPND): from VT, centrum semiovale as reference region; for Uptake of radiotracer in blocking studies: levetiracetam (30 mg/kg) or UCB-J (150 μg/kg) i.v. 10 min before radiotracer injection; for Displacement of radiotracer binding by levetiracetam: levetiracetam 30 mg/kg i.v. infused 60 or 90 min post injection of the radiotracer
SV2A (Macaca mulatta, UniProt H9EQH8), sequence (H9EQH8 1-742): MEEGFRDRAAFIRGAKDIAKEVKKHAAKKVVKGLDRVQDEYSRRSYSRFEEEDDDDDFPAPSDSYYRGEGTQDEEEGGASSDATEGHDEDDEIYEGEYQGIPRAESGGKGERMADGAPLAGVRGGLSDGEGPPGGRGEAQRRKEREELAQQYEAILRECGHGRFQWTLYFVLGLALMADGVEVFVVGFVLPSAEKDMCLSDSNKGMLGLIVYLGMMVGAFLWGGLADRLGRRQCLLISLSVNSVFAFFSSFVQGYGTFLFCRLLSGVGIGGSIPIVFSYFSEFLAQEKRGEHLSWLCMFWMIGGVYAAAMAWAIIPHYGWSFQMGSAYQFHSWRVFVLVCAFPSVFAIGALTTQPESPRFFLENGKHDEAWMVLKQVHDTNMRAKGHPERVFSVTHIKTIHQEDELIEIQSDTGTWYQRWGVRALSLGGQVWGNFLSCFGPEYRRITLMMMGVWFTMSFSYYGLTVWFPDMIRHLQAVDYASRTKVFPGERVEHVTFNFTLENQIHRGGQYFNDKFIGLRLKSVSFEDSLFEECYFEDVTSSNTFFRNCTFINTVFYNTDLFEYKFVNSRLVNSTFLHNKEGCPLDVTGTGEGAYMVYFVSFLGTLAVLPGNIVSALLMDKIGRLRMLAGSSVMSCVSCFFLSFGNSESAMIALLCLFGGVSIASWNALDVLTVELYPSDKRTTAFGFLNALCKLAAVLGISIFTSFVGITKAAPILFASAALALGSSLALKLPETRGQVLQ
Method: (§1) Experiments were performed in rhesus monkeys (Macaca mulatta). Rhesus monkeys were sedated using intramuscular (i.m.) injection of ketamine and glycopyrrolate approximately 2 hours before the PET scan and anesthesia was maintained with isoflurane (1.5%-2.5%) for the duration of the experiments. Baseline PET scans were obtained after intravenous (i.v.) injection of ^11C-3, ^18F-3, ^18F-4, ^18F-5, ^18F-10, ^18F-11, or ^18F-12.
(§2) Arterial blood samples were collected during the PET scans to calculate the plasma input function and to determine the unmetabolized parent fraction using the automatic column-switching HPLC system. Plasma free fraction (fp) was measured in triplicate using the ultrafiltration method.
(§3) PET scans of the brain were acquired using the FOCUS 220 PET scanner (Siemens Preclinical Solutions) with a reconstructed image resolution of approximately 1.5 mm. After a transmission scan, the radioligand was injected i.v. as a 3 min slow bolus by an infusion pump (PHD 22/2000; Harvard Apparatus). List-mode data were acquired for 120-180 min and binned into sinograms with an applicable number of frames. Scan data were reconstructed with a Fourier rebinning/filtered backprojection algorithm with corrections for attenuation, scanner normalization, radiation scatter, and randoms. Regions of interest were manually delineated on a single representative anatomic rhesus monkey MR image registered to a template image. The regions used in this study were amygdala, brain stem, caudate, centrum semiovale, cerebellum, cingulate cortex, frontal cortex, globus pallidus, insular cortex, nucleus accumbens, occipital cortex, pons, putamen, temporal cortex, and thalamus. Registration parameters were obtained to apply the regions of interest to individual PET scans, and regional time-activity curves were generated. Regional time-activity curves of the brain were analyzed with the 1-tissue-(1T) compartment model. Fit quality was compared with the 2-tissue model and the multilinear analysis method to calculate VT.
(§4) Typical injected radioactivity amount was 0.5-5 mCi per injection, with typical injected mass amount of 1-10 μg.
(§5) Specific binding to SV2A was further examined for ^11C-3, ^18F-3, and ^18F-11 in blocking studies, where levetiracetam or UCB-J ((R)-3) was i.v. infused before injection of the radiotracers.

SV2A [4] = target: T1, SV2A; test: PET imaging with (R)-11C-3 in patients with AD dementia and MCI; assay type: in vivo; details: AD/MCI patients vs cognitively normal subjects
SV2A [5] = target: T1, SV2A; test: PET imaging with (R)-11C-3 in patients with Parkinson's disease; assay type: in vivo; details: PD subjects vs age-matched healthy controls
SV2A [6] = target: SV2A (Papio anubis, UniProt A0A096NYL0); test: PET measurement in an olive baboon; assay type: in vivo, olive baboon (Papio anubis); details: gray matter regions, baboon brain
SV2A (Papio anubis, UniProt A0A096NYL0), sequence (A0A096NYL0 1-742): as the sequence (H9EQH8 1-742) above, with G108S counted along it
Method: Experiments were conducted in one olive baboon (P. anubis). […] PET images of the brain were acquired using a Siemens Biograph mCT system (Siemens Medical Solutions). […] List-mode data were acquired for 120 min and binned into sinograms with the following frame timing: 6×30 sec; 3×1 min; 2×2 min; and 22×5 min.
PET data were reconstructed with a TrueX+TOF algorithm with corrections for attenuation, normalization, scatter and randoms. Regions of interest (ROIs) were manually delineated on a single representative anatomical baboon magnetic resonance image (MRI) registered to a template image. […] MRI-to-PET registration parameters were obtained to apply the ROIs to individual PET scans, and regional time-activity curves (TACs) were generated. VT values were estimated using a one-tissue (1T) compartment model with the metabolite-corrected input function.
Arterial blood samples were collected to determine the plasma input function, including measurement of the unmetabolized ^11C-3 fraction. The free fraction of ^11C-3 in plasma was determined in arterial blood samples taken immediately before ^11C-3 injection.

[7] = PET imaging studies in rhesus monkeys; details: rhesus monkey, in vivo, Distribution volume (VT), 1T model
Method: as §1, §2, §3, §4, §5

[8] = rhesus monkey brain after i.v. injection

T1 sequence (Q7L0J3 whole entry, looked up): as the sequence (H9EQH8 1-742) above, with S64G, V572I counted along it

Row | SMILES | fraction unbound [2] | Binding potential (BPND) (SV2A [3]; Amygdala) | Binding potential (BPND) (SV2A [3]; Brainstem) | Binding potential (BPND) (SV2A [3]; Caudate nucleus) | Binding potential (BPND) (SV2A [3]; Cerebellum) | Binding potential (BPND) (SV2A [3]; Cingulate cortex) | Binding potential (BPND) (SV2A [3]; Frontal cortex) | Binding potential (BPND) (SV2A [3]; Globus pallidus) | Binding potential (BPND) (SV2A [3]; Hippocampus) | Binding potential (BPND) (SV2A [3]; Insular cortex) | Binding potential (BPND) (SV2A [3]; Nucleus accumbens) | Binding potential (BPND) (SV2A [3]; Occipital cortex) | Binding potential (BPND) (SV2A [3]; Pons) | Binding potential (BPND) (SV2A [3]; Putamen) | Binding potential (BPND) (SV2A [3]; Temporal cortex) | Binding potential (BPND) (SV2A [3]; Thalamus) | Kp ([7]; Amygdala) | Kp ([7]; Brainstem) | Kp ([7]; Caudate nucleus) | Kp ([7]; Centrum semiovale) | also measured
1 | Cc1cnccc1CN1CC(c2cc(F)c(F)c(F)c2)CC1=O (single isomer, unassigned) [^11C-3, 1-((3-methylpyridin-4-yl)methyl)-4-(3,4,5-trifluorophenyl) pyrrolidin-2-one] | 0.44 ± 0.01 | 0.85 ± 0.34 | 0.76 ± 0.21 | 2.40 ± 0.72 | 1.68 ± 0.31 | 3.17 ± 0.84 | 3.18 ± 0.91 | 1.10 ± 0.28 | 1.59 ± 0.39 | 3.12 ± 0.81 | 3.04 ± 0.69 | 2.97 ± 0.65 | 0.75 ± 0.21 | 2.42 ± 0.63 | 2.79 ± 0.61 | 2.03 ± 0.62 |  |  |  |  | asymmetries in binding relative to 18F-FDG (SV2A [1]; TLE subjects with MTS): 2.3 fold; BPND asymmetry indices (SV2A [1]; hippocampus, nine TLE subjects with MTS): −38±21%; Uptake of radiotracer in blocking studies (SV2A [3]): reduced to background levels; time to SUV peak in gray matter regions (SV2A [3]; rhesus monkey, in vivo, iv): slower; reduction in hippocampal VT (SV2A [4]; P=0.001): 28%; reduction in hippocampal SV2A binding (BPND) (SV2A [4]; P=0.005): 41%; decrease in BPND (SV2A [5]; cortical regions): 16%-20%; decrease in VT (SV2A [5]; cortical regions, listed as (R)-^11C-3): 19-23% and 19%-23%; decrease in BPND (SV2A [5]; putamen): 16%; decrease in VT (SV2A [5]; putamen): 15%; decrease in BPND (SV2A [5]; substantia nigra): 33%; decrease in VT (SV2A [5]; substantia nigra): 19%; peak uptake (standardized uptake value, SUV) (SV2A [6]): 10-15; time to peak uptake after injection (SV2A [6]): 6 to 16 min
2 | Cc1cnccc1CN1CC(c2cc(F)cc(F)c2)CC1=O (stereo not drawn) [^18F-5, 4-(3,5-Difluorophenyl)-1-((3-methylpyridin-4-yl)methyl)pyrrolidin-2-one] | 0.42 ± 0.03 | 1.70 ± 1.51 | 0.59 ± 0.57 | 2.09 ± 1.37 | 2.16 ± 0.15 | 4.49 ± 0.50 | 4.26 ± 0.57 | 1.04 ± 0.09 | 2.36 ± 0.51 | 4.16 ± 0.42 | 3.09 ± 2.04 | 3.75 ± 0.11 | 0.80 ± 0.03 | 3.03 ± 0.55 | 3.60 ± 0.22 | 3.08 ± 0.96 | 20.5 ± 6 | 15 ± 4 | 31.9 ± 4.8 | 8.3 ± 2.4 | Kp ([7]; Cerebellum): 26.1 ± 6.5; Kp ([7]; Cingulate cortex): 45 ± 9.2; Kp ([7]; Frontal cortex): 43 ± 8.1; Kp ([7]; Globus pallidus): 19.3 ± 2.4; Kp ([7]; Hippocampus): 27.3 ± 4; Kp ([7]; Insular cortex): 42.3 ± 9.1; Kp ([7]; Nucleus accumbens): 41.9 ± 7.8; Kp ([7]; Occipital cortex): 39.3 ± 10.7; Kp ([7]; Pons): 14.9 ± 4.1; Kp ([7]; Putamen): 32.8 ± 5.2; Kp ([7]; Temporal cortex): 37.9 ± 9.4; Kp ([7]; Thalamus): 32.7 ± 1.9; Displacement of radiotracer binding by levetiracetam (SV2A [3]): reduced the binding of these tracers to a significant extent; time to SUV peak in gray matter regions (SV2A [3]; [8]): slower
3 | O=C1CC(c2cc(F)c(F)c(F)c2)CN1Cc1ccncc1F (stereo not drawn) [^18F-10, 1-((3-fluoropyridin-4-yl)methyl)-4-(3,4,5-trifluorophenyl)pyrrolidin-2-one] | 0.52 | −0.03 | 0.01 | 0.37 | 0.22 | 0.59 | 0.46 | 0.14 | 0.12 | 0.48 | 0.43 | 0.53 | 0.04 | 0.39 | 0.39 | 0.19 | 9.8 | 10.2 | 13.8 | 10.1 | Kp ([7]; Cerebellum): 12.3; Kp ([7]; Cingulate cortex): 16; Kp ([7]; Frontal cortex): 14.7; Kp ([7]; Globus pallidus): 11.5; Kp ([7]; Hippocampus): 11.3; Kp ([7]; Insular cortex): 14.9; Kp ([7]; Nucleus accumbens): 14.4; Kp ([7]; Occipital cortex): 15.5; Kp ([7]; Pons): 10.5; Kp ([7]; Putamen): 14; Kp ([7]; Temporal cortex): 14; Kp ([7]; Thalamus): 12; time to SUV peak in gray matter regions (SV2A [3]; [8]): ≤ 10 min
4 | Cc1cnccc1CN1CC(c2cccc(F)c2)CC1=O (stereo not drawn) [^18F-11, 4-(3-Fluorophenyl)-1-((3-methylpyridin-4-yl)methyl)pyrrolidin-2-one] | 0.42 ± 0.02 | 1.05 ± 0.29 | 0.53 ± 0.42 | 2.29 ± 0.88 | 1.59 ± 0.76 | 3.49 ± 1.52 | 3.29 ± 1.40 | 1.13 ± 0.61 | 1.58 ± 0.59 | 3.00 ± 1.21 | 3.12 ± 1.26 | 2.90 ± 1.50 | 0.46 ± 0.51 | 2.21 ± 0.89 | 2.63 ± 1.33 | 2.18 ± 0.77 | 8.7 ± 2.4 | 6.6 ± 2.9 | 13.2 ± 2.6 | 4.4 ± 1.5 | Kp ([7]; Cerebellum): 10.8 ± 2.6; Kp ([7]; Cingulate cortex): 18.2 ± 2.2; Kp ([7]; Frontal cortex): 17.4 ± 2.2; Kp ([7]; Globus pallidus): 8.8 ± 1.8; Kp ([7]; Hippocampus): 10.7 ± 2.8; Kp ([7]; Insular cortex): 16.8 ± 2.6; Kp ([7]; Nucleus accumbens): 16.4 ± 2.9; Kp ([7]; Occipital cortex): 15.7 ± 2.7; Kp ([7]; Pons): 6.4 ± 3.5; Kp ([7]; Putamen): 13.6 ± 2.3; Kp ([7]; Temporal cortex): 14.7 ± 2.5; Kp ([7]; Thalamus): 13.2 ± 2.1; Displacement of radiotracer binding by levetiracetam (SV2A [3]): reduced the binding of these tracers to a significant extent; Uptake of radiotracer in blocking studies (SV2A [3]): reduced to background levels; time to SUV peak in gray matter regions (SV2A [3]; [8]): ≤ 10 min
